Experimental data reported in paper PMC6474902, “Examination of novel 4-aminoquinoline derivatives designed and synthesized by a hybrid pharmacophore approach to enhance their anticancer activities” (Scientific Reports, 2019).
“And” between values parts separate entries of the source, which are not always exact repeats. Identical values can stand only once. “Also recorded” adds a separate entry of the source.

Assays:
Type in all cases: cell-based, human
[1] = system: MCF7; assay: SRB antiproliferative/antigrowth assay
How it was run: (§1)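 Cells seeded 24 h before exposure to seven concentrations (100 µM to 0.0064 µM) for 48 h at 37 °C. Growth by TCA fixation and SRB staining, absorbance 515–564 nm, relative to time-zero and untreated controls; GI50 from variable-slope sigmoidal fit, reported as greater/less than range limits when not reached.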

[2] = system: MDA-MB231; assay: SRB antiproliferative/antigrowth assay; settings: Homo sapiens, MDA-MB-231, 48 h, read-out: GI50 MB231
How it was run: as §1

[3] = system: MDA-MB468; assay: SRB antiproliferative/antigrowth assay; settings: Homo sapiens, MDA-MB-468, 48 h, read-out: GI50 MB468
How it was run: as §1

[4] = system: MDA-MB231, MDA-MB468, MCF7 breast cancer cells; 184B5 and MCF10A non-cancer breast cells; assay: SRB assay, panel of breast cancer and non-cancer breast cell lines; settings: judged from GI50 values of Table 1
Description: The antigrowth effects of 4-piperazinylquinoline sulfonyl analogs on human breast tumor cells was initially evaluated using MDA-MB468 (a PTEN defective, EGFR positive breast adenocarcioma), MDA-MB231 (p53 and pRB mutated, triple-negative breast carcinoma), and MCF7 (p53+/−, invasive ductal breast carcinoma) cell lines. In addition, the cytotoxicity of all the compounds was also evaluated with the 184B5 and MCF10A non-cancer immortalized breast epithelial cell lines, to determine if these newly synthesized compounds have differential cytotoxic effects on cancer and non-cancer cells. The panel of three breast cancer cell lines with different genetic back ground and the well-studied two non-cancer immortalized breast cell lines would provide insights into the efficacy and toxicity of the test compounds in the different genetic background and at different stages of tumor development. The dose response of each cell line was established by determining the number of viable cells after 48 h of continuous drug treatment against seven different concentrations (100 µM to 0.0064 µM) of each compound. The reading of sulphorodamine B (SRB) staining is known to accurately reflect the level of total cellular macromolecules/cell growth/proliferation[6],[23]. […] The data for CQ and cisplatin were included as references. […] The differences in the GI50 values may be attributable to such factors as the nature of the sulfonyl group and the halogen substitution on the 7th position of the 4-piperazinylquinoline ring system, and the genetic and biochemical background of the cell lines.
Antiproliferative/antigrowth effects were determined by a SRB-based protocol[6],[23]. For a typical screening experiment, 5,000–10,000 cells were inoculated into 100 µL medium per well of a 96-well microtiter plate as described previously. Briefly, after the inoculation, the microtiter plate was incubated at 37 °C, 5% CO2, 95% air and 100% relative humidity for 24 h, prior to addition of experimental drugs. Some of the sample wells were fixed with 25 µL of 50% tricholoroacetic acid (TCA) as a control of the cell population for each cell line at the time of drug addition (Tz). An aliquot of the frozen stock was thawed and diluted to a desired final maximum test-concentration with complete medium. Two to ten-fold serial dilutions were made to provide a total of seven drug concentrations (and a control [C]). Following addition of drugs, the culture plate was incubated for additional 48 h. Cells were fixed in situ by slowly adding 25 µL of ice-cold 50% (w/v) TCA (final concentration, 10% TCA), and were then incubated for 60 min at 4 °C. The supernatant was discarded, and the plate was washed five times with tap water, followed by air-dry. 50 µL of SRB solution at 0.4% (w/v) in 1% acetic acid was added to each well, and the plate was incubated for >30 min at room temperature. Unbound SRB was removed by five washes with tap water, followed by air-drying. The cells “stained” with SRB were solubilized with 10 mM trizma base, and the absorbance was read on an automated plate reader at a wavelength of 515–564 nm. The relative growth rate (%) was calculated for each of the compound concentrations according to the following formula: (Ti−Tz)/(C−Tz)×100
In the formula, time zero (Tz), control growth (C), and OD for different concentration of tested compounds (Ti). The GI50 for each compound was obtained from a non-linear Sigmoidal dose-response (variable slope) curve which is fitted by GraphPad Prism v.4.03 software. Values were calculated for each of these parameters if the level of activity was reached. However, if the effect was not reached or was exceeded, the value for that parameter was expressed as greater or less than the maximum or minimum concentration tested.

[5] = system: NCI-60 cancer panel; assay: NCI-60 cancer panel screening; settings: screening carried out by the USA National Cancer Institute
Description: Therefore, we examined its effects on several cellular and molecular biological aspects to gain a better understanding about its mode of function. […]
compound 13 show s effective grow th inhibition on a w ide range of cancers. Screening of compound 13 with the NCI-60 cancer panel was carried out by the USA National Cancer Institute.
(1 picture or pasted object on this page, not shown here)

[6] = system: HeLa S3 cells; assay: Mitotic spindle/centrosome morphology by confocal microscopy; settings: 5 μM, 6 h after nocodazole synchronization
Source text: To gain further insight into the cellular mechanism involved in the cell cycle arrest, we examined cell morphology in the context of mitotic progress. […] Many of these cells are apparently arrested at the spindle checkpoint stage. Even those cells undergo cell division (probably after prolonged arrest) often segregated with uneven cell sizes (arrows in Fig. 6a).
Figure 6 Compound 13 causes the formation of multiple spindle poles and uneven segregation. (a) HeLa S3 cells were synchronized at G2/M by nocodazole, followed by incubation for 6 h in drug-free medium in the absence (Sham control) or presence of 5 μM of compound 13. Note the presence of uneven cell sizes (arrows) which were likely generated as a result of nondisjuctional chromosome segregation during mitosis. […] In contrast, the untreated control sample contains very few cells with abnormal spindles.
All immunocytochemistry experiments were visualized by confocal microscopy using a Zeiss 510 Meta laser scanning microscope (Carl Zeiss) equipped with a 63× objective lens. Three lasers were utilized for excitation with the following band pass filter settings used for detection: Argon 488 nm (band pass 505–530), HeNe 543 nm (long pass 560) and 633 nm (long pass 650). All images were captured and analyzed using LSM 510 software included with the microscope (LSM Image Examiner, Carl Zeiss).

## O=[N+]([O-])c1ccc(S(=O)(=O)N2CCN(c3ccnc4cc(Cl)ccc34)CC2)c([N+](=O)[O-])c1 [Compound 13, 7-Chloro-4-(4-(2,4-dinitrophenylsulfonyl)piperazin-1-yl)quinoline]
[1]; Homo sapiens, MCF7, 48 h, read-out: GI50 MCF7
  GI50: 2300 ± 100 nM
[1]; ratio of GI50 values
  more effective than cisplatin (MCF7): 11.1 fold
[2]
  GI50: 3400 ± 100 nM
[3]
  GI50: 700 ± 100 nM
[4]
  preferential antigrowth effect on cancer versus non-cancer cells (in words): effective and preferential antigrowth effects on cancer cells; also recorded: stronger antigrowth/antiproliferation activity against cancer cells than non-cancer cells
[5]
  growth inhibition in NCI-60 cancer panel (in words): effective on many different human cancers
[6]
  mitotic cells with multiple centrosomes / multiple spindle phenotypes: 44% and 44.4%
